The text below walks through data of patent US20260078108A1, “SOLID FORMS OF A ROCK INHIBITOR” (REDX PHARMA PLC, priority 2022, published 2026).

Molecules are shown by their SMILES.

The target of one assay is T1, PKCepsilon (Homo sapiens, UniProt Q02156).
T1 sequence (Q02156 1-737): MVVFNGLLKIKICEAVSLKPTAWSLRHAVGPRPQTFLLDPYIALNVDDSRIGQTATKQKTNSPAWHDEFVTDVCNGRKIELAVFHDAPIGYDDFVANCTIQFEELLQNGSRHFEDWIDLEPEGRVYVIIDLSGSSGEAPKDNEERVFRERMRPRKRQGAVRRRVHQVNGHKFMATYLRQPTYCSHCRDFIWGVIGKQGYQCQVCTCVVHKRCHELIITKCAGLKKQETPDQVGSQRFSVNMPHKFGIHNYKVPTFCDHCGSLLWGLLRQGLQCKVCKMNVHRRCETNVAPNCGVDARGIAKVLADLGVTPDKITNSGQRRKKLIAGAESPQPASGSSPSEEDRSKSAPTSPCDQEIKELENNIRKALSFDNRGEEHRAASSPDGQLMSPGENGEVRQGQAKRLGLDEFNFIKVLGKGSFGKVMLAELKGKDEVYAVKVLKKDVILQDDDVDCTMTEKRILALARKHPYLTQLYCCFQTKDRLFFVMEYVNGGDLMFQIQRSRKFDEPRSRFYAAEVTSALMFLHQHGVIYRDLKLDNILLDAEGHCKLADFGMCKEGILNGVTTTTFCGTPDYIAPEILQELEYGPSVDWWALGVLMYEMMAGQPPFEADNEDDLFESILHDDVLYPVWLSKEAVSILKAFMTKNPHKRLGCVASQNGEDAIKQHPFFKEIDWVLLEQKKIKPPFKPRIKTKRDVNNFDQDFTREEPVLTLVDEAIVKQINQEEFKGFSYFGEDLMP
Description: Kinase panel 33P-ATP filter assay, PKCepsilon. The assay is classed as biochemical. The conditions noted are these: HCl salt tested; ATP Conc. 10 μM (Km); read-out: Compound IC50 (nM) PKCepsilon. The procedure: (§1) The HCl salts of S enantiomer and the R enantiomer of compound A were tested against a panel of kinases.
(§2) Compounds were received as powder and resuspended to 10 mM DMSO stock. Compounds were tested in 10-dose IC50 mode with a 3-fold serial dilution starting at 10 μM. Control compound, staurosporine, was tested in 10-dose IC50 mode with 4-fold serial dilution starting at 20 μM.
(§3) Reaction Conditions: Buffer Conditions: 20 mM HEPES ((4-(2-hydroxyethyl)-1-piperazineethanesulfonic acid; pH 7.5), 10 mM MgCl2, 1 mM EGTA (Ethyleneglycol-bis(p-aminoethyl)-N,N,N′,N′-tetraacetic Acid), 0.01% Brij35, 0.02 mg/ml BSA (Bovine serum albumin), 0.1 mM Na3VO4, 2 mM DTT (Dithiothreitol), 1% DMSO. Reaction Procedure: 1. Prepare indicated substrate in freshly prepared reaction buffer. 2. Deliver required cofactors to the substrate solution above. 3. Deliver indicated kinase into the substrate solution and mix gently. 4. Deliver compounds in DMSO into the kinase reaction mixture utilizing acoustic technology (Echo550). 5. Deliver ^33P-ATP (specific activity 0.01 μCi/μl final) into the reaction mixture to initiate the reaction. 6. Incubate kinase reaction for 120 minutes at room temperature. 7. […] Data Analysis: Kinase activity data were expressed as the percent remaining kinase activity in test samples compared to vehicle (dimethyl sulfoxide) reactions. […]

The target in a further assay is PKCtheta (Homo sapiens, UniProt Q04759). Description: Kinase panel 33P-ATP filter assay, PKCtheta. The assay is classed as biochemical. The conditions noted are these: HCl salt tested; ATP Conc. 30 μM (Km); read-out: Compound IC50 (nM) PKCtheta. How it is done: as §1, §2, §3
Sequence of PKCtheta (Q04759 whole entry): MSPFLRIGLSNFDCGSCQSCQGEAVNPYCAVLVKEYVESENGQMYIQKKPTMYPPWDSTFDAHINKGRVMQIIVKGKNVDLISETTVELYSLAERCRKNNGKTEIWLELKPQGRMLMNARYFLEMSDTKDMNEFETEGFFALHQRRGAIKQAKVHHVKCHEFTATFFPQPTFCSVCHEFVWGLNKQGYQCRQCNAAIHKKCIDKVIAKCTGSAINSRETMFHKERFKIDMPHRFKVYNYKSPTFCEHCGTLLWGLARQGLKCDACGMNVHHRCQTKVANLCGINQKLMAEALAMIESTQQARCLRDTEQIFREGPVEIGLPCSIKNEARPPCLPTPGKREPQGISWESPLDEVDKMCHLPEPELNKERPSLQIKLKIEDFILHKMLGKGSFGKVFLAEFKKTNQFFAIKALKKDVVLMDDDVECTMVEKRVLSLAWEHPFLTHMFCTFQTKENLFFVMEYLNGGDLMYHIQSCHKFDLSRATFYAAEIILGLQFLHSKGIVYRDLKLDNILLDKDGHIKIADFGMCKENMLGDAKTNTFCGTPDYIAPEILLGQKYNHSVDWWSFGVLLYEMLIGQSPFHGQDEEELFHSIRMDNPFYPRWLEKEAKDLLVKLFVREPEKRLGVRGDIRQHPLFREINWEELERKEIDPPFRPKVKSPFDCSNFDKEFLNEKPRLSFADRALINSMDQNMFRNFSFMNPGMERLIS
A further assay deals with PKN1/PRK1 (Homo sapiens, UniProt Q16512). The assay can be described thus: Kinase panel 33P-ATP filter assay, PKN1/PRK1. The assay is classed as biochemical. The conditions noted are these: HCl salt tested; ATP Conc. 15 μM (Km); read-out: Compound IC50 (nM) PKN1/PRK1. The procedure:
as §1, §2, §3

The target of another assay is T2, CB2 (h) (Homo sapiens, UniProt P34972).
T2 construct: expressed in transfected cells; host or cells: CHO cells
T2 sequence (P34972 whole entry): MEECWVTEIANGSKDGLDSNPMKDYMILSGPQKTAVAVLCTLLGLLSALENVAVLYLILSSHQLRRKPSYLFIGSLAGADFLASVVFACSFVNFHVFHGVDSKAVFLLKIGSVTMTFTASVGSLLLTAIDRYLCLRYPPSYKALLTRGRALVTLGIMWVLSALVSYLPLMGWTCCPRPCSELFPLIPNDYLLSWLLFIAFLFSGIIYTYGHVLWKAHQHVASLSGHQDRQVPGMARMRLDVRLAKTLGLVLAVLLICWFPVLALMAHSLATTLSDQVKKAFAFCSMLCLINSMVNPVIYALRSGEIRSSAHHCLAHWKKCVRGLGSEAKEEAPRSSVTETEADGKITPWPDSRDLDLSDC
The assay can be described thus: CEREP panel CB2 (h) agonist effect, cAMP HTRF. In kind it is cell-based. The conditions noted are these: HCl salt tested, CHO cells. From the text: (§4) The use of in vitro pharmacological screening against a diverse range of targets (receptors, ion channels, enzymes and transporters) is used to identify undesirable off-target activity that may cause adverse drug reactions in humans. Screening panels (e.g. SafetyScreen44™ Panel, Eurofins) comprise a selection of off-targets linked with known issues in humans that could hinder or halt the development of drug candidates or market withdrawal if discovered after a drug is approved. The HCl salts of the S enantiomer and the R enantiomer of compound A were tested against a panel of such targets.
(§5) The tests were carried out according to the methods described in the following tables and indicated literature references.
(In general: Time-resolved FRET reads energy transfer from a long-lived donor to a nearby acceptor.)

In the next assay the target is T3, M1 (h) (Homo sapiens, UniProt P11229).
T3 construct: expressed in transfected cells; host or cells: CHO cells
T3 sequence (P11229 1-460): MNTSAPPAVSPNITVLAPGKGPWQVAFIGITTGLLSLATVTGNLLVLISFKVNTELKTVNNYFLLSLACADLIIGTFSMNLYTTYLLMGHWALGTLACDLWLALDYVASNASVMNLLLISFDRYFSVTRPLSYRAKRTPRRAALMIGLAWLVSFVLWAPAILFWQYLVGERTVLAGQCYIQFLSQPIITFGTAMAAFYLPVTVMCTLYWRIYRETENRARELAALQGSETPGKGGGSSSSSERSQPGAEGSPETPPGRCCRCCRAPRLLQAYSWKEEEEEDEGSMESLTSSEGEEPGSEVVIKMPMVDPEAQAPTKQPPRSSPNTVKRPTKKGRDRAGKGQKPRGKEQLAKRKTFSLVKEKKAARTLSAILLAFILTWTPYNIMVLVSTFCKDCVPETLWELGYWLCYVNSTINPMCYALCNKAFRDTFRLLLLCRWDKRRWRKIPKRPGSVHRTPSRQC
Description: CEREP panel M1 (h) agonist effect, intracellular Ca2+ fluorimetry. The assay is classed as cell-based. The conditions noted are these: HCl salt tested, CHO cells.
Text: as §4, §5

A further assay deals with T4, M2 (h) (Homo sapiens, UniProt P08172).
T4 construct: expressed in transfected cells; host or cells: CHO cells
T4 sequence (P08172 1-466): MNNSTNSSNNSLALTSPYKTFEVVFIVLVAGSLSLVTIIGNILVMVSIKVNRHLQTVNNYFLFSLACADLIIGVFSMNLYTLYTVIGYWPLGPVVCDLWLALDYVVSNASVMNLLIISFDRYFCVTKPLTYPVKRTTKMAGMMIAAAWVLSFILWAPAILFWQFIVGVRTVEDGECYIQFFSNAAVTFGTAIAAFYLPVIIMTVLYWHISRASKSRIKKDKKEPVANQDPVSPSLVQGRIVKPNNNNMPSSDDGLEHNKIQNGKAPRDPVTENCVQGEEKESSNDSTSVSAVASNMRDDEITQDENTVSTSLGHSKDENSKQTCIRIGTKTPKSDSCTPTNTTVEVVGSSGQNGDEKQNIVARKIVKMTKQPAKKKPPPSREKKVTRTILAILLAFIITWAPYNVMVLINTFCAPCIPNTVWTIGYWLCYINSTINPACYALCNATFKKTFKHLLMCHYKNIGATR
The assay can be described thus: CEREP panel M2 (h) antagonist effect, cAMP HTRF. In kind it is cell-based. The conditions noted are these: HCl salt tested; CHO cells, acetylcholine (300 nM).
Text: as §4, §5

Sequence of PKN1/PRK1 (Q16512 whole entry): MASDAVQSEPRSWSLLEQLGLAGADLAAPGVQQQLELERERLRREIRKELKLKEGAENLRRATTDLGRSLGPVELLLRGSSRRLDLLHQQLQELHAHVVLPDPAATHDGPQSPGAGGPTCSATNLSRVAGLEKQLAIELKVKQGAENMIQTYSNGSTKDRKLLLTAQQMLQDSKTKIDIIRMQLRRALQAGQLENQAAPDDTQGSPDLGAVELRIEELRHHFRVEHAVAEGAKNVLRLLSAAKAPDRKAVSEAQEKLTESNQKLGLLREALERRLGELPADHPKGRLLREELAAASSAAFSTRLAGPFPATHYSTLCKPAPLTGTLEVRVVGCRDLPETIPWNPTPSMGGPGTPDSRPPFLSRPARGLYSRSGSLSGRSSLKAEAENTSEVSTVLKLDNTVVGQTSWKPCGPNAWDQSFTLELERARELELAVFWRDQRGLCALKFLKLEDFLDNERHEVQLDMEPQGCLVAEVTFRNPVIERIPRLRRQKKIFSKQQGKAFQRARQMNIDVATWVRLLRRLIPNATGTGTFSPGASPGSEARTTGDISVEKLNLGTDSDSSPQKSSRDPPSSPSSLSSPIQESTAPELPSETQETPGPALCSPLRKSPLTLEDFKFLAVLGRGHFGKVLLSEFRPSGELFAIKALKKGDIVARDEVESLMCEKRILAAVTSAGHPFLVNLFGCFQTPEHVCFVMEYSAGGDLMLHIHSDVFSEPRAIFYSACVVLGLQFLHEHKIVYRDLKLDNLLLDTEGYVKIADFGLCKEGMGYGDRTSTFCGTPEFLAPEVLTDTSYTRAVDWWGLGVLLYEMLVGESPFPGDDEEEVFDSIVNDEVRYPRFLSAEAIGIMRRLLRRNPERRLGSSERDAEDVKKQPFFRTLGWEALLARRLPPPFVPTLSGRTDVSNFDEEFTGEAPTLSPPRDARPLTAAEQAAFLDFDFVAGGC

On to `NCc1ccc(C(=O)Nc2ccncc2F)cc1-c1cccc(C(=O)Nc2ccc(SC[C@H]3CCOC3=O)cc2)c1` [S-enantiomer], for which the IC50 on PKCepsilon was 6.7 nM; on PKCtheta, 9.9 nM; at PKN1/PRK1 it was 8.5 nM; at M2 (h), over 100000 nM. Further, the “CB2 (h) (agonist effect) (EC50)” value at CB2 (h) is listed as “Inactive”. The “M1 (h) (agonist effect) (EC50)” value on M1 (h) is reported as “Inactive”.

On to `NCc1ccc(C(=O)Nc2ccncc2F)cc1-c1cccc(C(=O)Nc2ccc(SC[C@@H]3CCOC3=O)cc2)c1` [R-enantiomer], for which the IC50 on PKCepsilon was determined as 2.9 nM; on PKCtheta it was 4.4 nM; on PKN1/PRK1, 7.9 nM; on M2 (h), 6200 nM. Also, the “CB2 (h) (agonist effect) (EC50)” value on CB2 (h) is “Inactive”. Besides, at M1 (h), the “M1 (h) (agonist effect) (EC50)” value is recorded as “Inactive”.
